Test: Solubility in an organic solvent
Type: physicochemical
Conditions: 1 μml of compound added to 1 ml solvent, mixed 15 minutes; chloroform for Examples 7 to 8, toluene for Examples 9 to 10 and Comparative Example 1
Description: Solubility of organic silane compounds synthesized in Examples 7 to 10, and 6,8,11,13-tetra(N,N-diphenylamino)pentacene of Comparative Example 1 in an organic solvent was assessed. More particularly, 1 μml of each compound was added to 1 ml of the following organic solvent, and this was mixed for 15 minutes.
Examples 9 to 10 and Comparative Example 1
Each of organic silane compounds of Examples 7 to 10 was dissolved in an organic solvent to obtain a transparent solution.

## c1ccc(N(c2ccccc2)c2ccc(N(c3ccccc3)c3ccccc3)c3cc4c(N(c5ccccc5)c5ccccc5)c5cc6ccccc6cc5c(N(c5ccccc5)c5ccccc5)c4cc23)cc1 [Comparative Example 1, 6,8,11,13-tetra(N,N-diphenylamino)pentacene]
  Solubility in an organic solvent: only dispersed and not dissolved in an organic solvent
